Measurements: patent US11420935B2, “Bicyclic compounds” (Vivace Therapeutics, Inc., priority 2019, dated 2022)
Read-outs that look alike come from different tables or passages of the source.

System: 8×TBD luciferase reporter (YAP) in HEK293T cells
Assay: YAP Reporter Assay (8×TBD firefly luciferase reporter)
Type: cell-based
Settings: Homo sapiens, HEK-293T
Method: HEK293T cells stably transfected with 8×TBD luciferase reporter and pRLTK in 384-well plates were treated with the test compounds, starting from 3 μM (final concentration in assay plate), 1:3 dilution, and 10 points in quadruplicates. Post 24-hr incubation with compounds at 37° C. and 5% CO2, cells were lysed and 8×TBD-driven firefly luciferase and control TK-driven renilla luciferase activities were measured using Promega Dual-Luciferase Reporter Assay System.
Reagents: The reagents used for this study are: DMEM: Invitrogen #11960077, Dual-Glo Luciferase Assay System: Promega-E2980, Puromycin Dihydrochloride: Invitrogen-A1113803, 384-well plate: PerkinElmer-6007480, L-GLUTAMINE: Invitrogen-25030164, Hygromycin B: Invitrogen-10687010, and Penicillin-Streptomycin: Merk-TMS-AB2-C
Media: The media used for this assay were: Culture Medium: DMEM+1 ug/mL puromycin+200 ug/mL hygromycin (with 10% FBS+1 mM L-glutamine); and Assay Medium: DMEM (with 10% FBS+1 mM L-glutamine+1×P/S).
Cell Plating: The appropriate media was warmed at 37° C. by water bath: Culture Medium, Assay Medium, 1*D-PBS, 0.05% trypsin-EDTA. The cells were trypsinized after removing all media, then washed with 1*sterile D-PBS and then with 2 ml 0.05% trypsin-EDTA. The cells were then incubated at RT for one minute. Then 10 ml/75 cm2 flask Assay Medium was added to each flask. Using a 10 ml pipette, the cells were then gently resuspended in the media, until the clumps completely disappeared. The cells were then transferred into 50 ml centrifuge tubes and were centrifuged at 800 rpm for 5 mins. The medium was removed and the cells were resuspended with Assay Medium. An aliquot of cells was used to count the cell density (cells/ml). The cell suspension was then diluted with Assay Medium to a concentration of 6×10^4 cells/ml. 50 ul cells suspension was then plated to 384-well plate (PerkinElmer-6007480), 3×10^3 cells/well and the cells were incubated in an incubator at 37° C., 5% CO2.
Compound Treatment: In the afternoon (incubation of the plate with 3-4 hrs), the test compounds were added by Echo, starting from 3 uM (final concentration in the assay plate), 1:3 dilution, 10 points, quadruplicates. The plate was placed at 37° C., 5% CO2 incubator for 24 hrs.
Detection: The Dual-Glo Luciferase Reagent was prepared by transferring the contents of one bottle of Dual-Glo Luciferase Buffer to one bottle of Dual-Glo Luciferase Substrate to create the Dual-Glo Luciferase Reagent. Mixing was performed by inversion until the substrate was thoroughly dissolved. After mixing, the reagent was aliquoted into 15 ml tubes. In the afternoon (24 hrs post compound treatment), the DMEM+medium in the 384 well plates were aspirated by Microplate Washer.
Measuring firefly luciferase activity: 20 ul Dual-Glo Luciferase Reagent was added to the 384-well plates. The plates were protected from light to prevent interference with the assay. The plates were shaken for 1 min followed centrifuging plates at 1000 rpm for 30 seconds. After waiting at least 10 minutes, the firefly luminescence was measured by Envision.
Measuring renilla luciferase activity: 20 ul Stop-Glo Reagent was added to the 384-well plates. The plates were shaken for 1 min and then centrifuged at 1000 rpm for 30 seconds. After waiting at least 10 minutes, the renilla luminescence was measured by Envision.
Compound IC50 and maximum inhibition on the firefly luciferase and renilla luciferase activities were reported separately.

[1] = HEK293T cells stably transfected with 8×TBD luciferase reporter and pRLTK, 24-hr incubation, firefly luciferase activity, read-out: Firefly Luciferase IC50

Q: `C[C@H](NC(=O)c1ccc2c(Oc3ccc(C(F)(F)F)cc3)cccc2c1)C1CN(CC(F)F)C1` [Compound 134, (S)—N-(1-(1-(2,2-difluoroethyl)azetidin-3-yl)ethyl)-5-(4-(trifluoromethyl)phenoxy)-2-naphthamide] was tested. Which IC50 [1] did it give?
A: 1 to 3 µM

Q: `O=C(N[C@H](CCO)c1ccccn1)c1ccc2c(Oc3ccc(C(F)(F)F)cc3)cccc2c1` [Compound 109, (R)—N-(3-hydroxy-1-(pyridin-2-yl)propyl)-5-(4-(trifluoromethyl)phenoxy)-2-naphthamide] was tested. Which IC50 [1] did it give?
A: 0.1 to 1 µM

Q: How did the IC50 [1] turn out when `C[C@H](NC(=O)c1ccc2c(Oc3ccc(C(F)(F)F)cc3)cccc2c1)c1cn(C)cn1` [Compound 92, N-[(1S)-1-(1-methylimidazol-4-yl)ethyl]-5-[4-(trifluoromethyl)phenoxy]naphthalene-2-carboxamide] was run?
A: 0.1 to 1 µM

Q: For `C[C@@H](NC(=O)c1ccc2c(Oc3ccc(C(F)(F)F)cc3)cccc2c1)C1CN(C2CC2)C1` [Compound 137, (R)—N-(1-(1-cyclopropylazetidin-3-yl)ethyl)-5-(4-(trifluoromethyl)phenoxy)-2-naphthamide], which IC50 [1] is on record?
A: < 0.1 µM

Q: With `C[C@H](NC(=O)c1ccc2c(Oc3ccc(C(F)(F)F)cc3)cccc2c1)c1ncc[nH]1` [Compound 63, (S)—N-(1-(1H-imidazol-2-yl)ethyl)-5-(4-(trifluoromethyl)phenoxy)-2-naphthamide] as the compound, how does the IC50 [1] read?
A: 0.1 to 1 µM

Q: How did the IC50 [1] turn out when `C[C@H](CCN)NC(=O)c1ccc2c(Oc3ccc(C(F)(F)F)cc3)cccc2c1` [Compound 112, (R)—N-(4-aminobutan-2-yl)-5-(4-(trifluoromethyl)phenoxy)-2-naphthamide] was run?
A: < 0.1 µM

Q: For `CNCC[C@@H](C)NC(=O)c1ccc2c(Oc3ccc(C(F)(F)F)cc3)cccc2c1` [Compound 145, (R)-N-(4-(methylamino)butan-2-yl)-5-(4-(trifluoromethyl)phenoxy)-2-naphthamide], which IC50 [1] is on record?
A: < 0.1 µM

Q: How did the IC50 [1] turn out when `COc1cc(Oc2ccc(C(F)(F)F)cc2)c2ncc(C(=O)NC(CO)c3ccccn3)cc2c1` (stereo not drawn) [Compound 118, N-(2-Hydroxy-1-(pyridin-2-yl)ethyl)-6-methoxy-8-(4-(trifluoromethyl)phenoxy)quinoline-3-carboxamide] was run?
A: < 0.1 µM

Q: `C[C@@H](NC(=O)c1ccc2c(Oc3ccc(C(F)(F)F)cc3)cccc2c1)C1CCNCC1` [Compound 150, (R)-N-(1-(piperidin-4-yl)ethyl)-5-(4-(trifluoromethyl)phenoxy)-2-naphthamide] was tested. Which IC50 [1] did it give?
A: < 0.1 µM

Q: Which IC50 (24 h, read-out: Firefly Luciferase IC50 (μM)) does the source give for `COc1cc(Oc2ccc(C(F)(F)F)cc2)c2ncc(C(=O)NC(C)C)cc2c1` [Compound 113, N-Isopropyl-6-methoxy-8-(4-(trifluoromethyl)phenoxy)quinoline-3-carboxamide] here?
A: < 0.1 µM

Q: How did the IC50 [1] turn out when `N#CNC(=O)c1ccc2c(Oc3ccc(C(F)(F)F)cc3)cccc2c1` [Compound 86, N-cyano-5-[4-(trifluoromethyl)phenoxy]naphthalene-2-carboxamide] was run?
A: 0.1 to 1 µM

Q: Which IC50 [1] does the source give for `CNS(=O)(=O)c1ccc2c(Oc3ccc(C(F)(F)F)cc3)cccc2c1` [Compound 7, N-methyl-5-(4-(trifluoromethyl)phenoxy)naphthalene-2-sulfonamide] here?
A: < 0.1 µM

Q: With `CC(C)NC(=O)c1ccc2c(Oc3ccc(C(F)(F)F)cc3)cccc2n1` [Compound 70, N-Isopropyl-5-(4-(trifluoromethyl)phenoxy)quinoline-2-carboxamide] as the compound, how does the IC50 [1] read?
A: < 0.1 µM

Q: For `CC(C)NC(=O)c1ccc2c(Oc3ccc(C(F)(F)F)cc3)ccnc2c1` [Compound 67, N-isopropyl-4-(4-(trifluoromethyl)phenoxy)quinoline-7-carboxamide], which IC50 [1] is on record?
A: 0.1 to 1 µM

Q: `O=C(N[C@@H](CO)c1ccccn1)c1ccc2c(Oc3ccc(C(F)(F)F)cc3)cccc2c1` [Compound 120, (R)—N-(2-hydroxy-1-(pyridin-2-yl)ethyl)-5-(4-(trifluoromethyl)phenoxy)-2-naphthamide] was tested. Which IC50 [1] did it give?
A: 0.1 to 1 µM

Q: For `C[C@H](NC(=O)c1ccc2c(Oc3ccc(C(F)(F)F)cc3)cccc2c1)c1nccn1C` [Compound 69, (S)—N-(1-(1-methyl-1H-imidazol-2-yl)ethyl)-5-(4-(trifluoromethyl)phenoxy)-2-naphthamide], which IC50 [1] is on record?
A: 0.1 to 1 µM

Q: With `C[C@@H](NC(=O)c1ccc2c(Oc3ccc(C(F)(F)F)cc3)cccc2c1)C1CNC1` [Compound 96, N-[(1R)-1-(azetidin-3-yl)ethyl]-5-[4-(trifluoromethyl)phenoxy]naphthalene-2-carboxamide] as the compound, how does the IC50 [1] read?
A: < 0.1 µM

Q: `C[C@@H](NC(=O)c1cnc2c(Oc3ccc(C(F)(F)F)cc3)cccc2c1)c1ccccn1` [Compound 17, N-[(1R)-1-(2-pyridyl)ethyl]-8-[4-(trifluoromethyl)phenoxy]quinoline-3-carboxamide] was tested. Which IC50 [1] did it give?
A: 0.1 to 1 µM

Q: For `C[C@H](NC(=O)c1ccc2c(Oc3ccc(C(F)(F)F)cc3)cccc2c1)C1CN(C)C1` [Compound 127, (S)—N-(1-(1-methylazetidin-3-yl)ethyl)-5-(4-(trifluoromethyl)phenoxy)-2-naphthamide], which IC50 [1] is on record?
A: 1 to 3 µM

Q: `C[C@@H](NC(=O)c1ccc2c(Oc3ccc(C(F)(F)F)cc3)cccc2c1)C1CCN(CC(F)F)CC1` [Compound 162, (R)-N-(1-(1-(2,2-difluoroethyl)piperidin-4-yl)ethyl)-5-(4-(trifluoromethyl)phenoxy)-2-naphthamide] was tested. Which IC50 [1] did it give?
A: 0.1 to 1 µM

Q: Which IC50 [1] does the source give for `O=C(N[C@@H](CO)C1CNC1)c1ccc2c(Oc3ccc(C(F)(F)F)cc3)cccc2c1` [Compound 140, (R)—N-(1-(azetidin-3-yl)-2-hydroxyethyl)-5-(4-(trifluoromethyl)phenoxy)-2-naphthamide] here?
A: 1 to 3 µM

Q: Which IC50 [1] does the source give for `C[C@H](NC(=O)c1ccc2c(Oc3ccc(C(F)(F)F)cc3)cccc2c1)C1(O)CNC1` [Compound 138, (S)—N-(1-(3-hydroxyazetidin-3-yl)ethyl)-5-(4-(trifluoromethyl)phenoxy)-2-naphthamide] here?
A: 0.1 to 1 µM

Q: How did the IC50 [1] turn out when `C[C@H](NC(=O)c1ccc2c(Oc3ccc(C(F)(F)F)cc3)cccc2c1)c1cccnc1N` [Compound 78, (S)—N-(1-(2-aminopyridin-3-yl)ethyl)-5-(4-(trifluoromethyl)phenoxy)-2-naphthamide] was run?
A: < 0.1 µM

Q: How did the IC50 [1] turn out when `O=C(NC1(c2ccccc2)COC1)c1ccc2c(Oc3ccc(C(F)(F)F)cc3)cccc2c1` [Compound 37, N-(3-phenyloxetan-3-yl)-5-(4-(trifluoromethyl)phenoxy)-2-naphthamide] was run?
A: < 0.1 µM

Q: With `O=C(NC(CO)Cc1ccccn1)c1ccc2c(Oc3ccc(C(F)(F)F)cc3)cccc2c1` (stereo not drawn) [Compound 80, N-[1-(hydroxymethyl)-2-(2-pyridyl)ethyl]-5-[4-(trifluoromethyl)phenoxy]naphthalene-2-carboxamide] as the compound, how does the IC50 [1] read?
A: < 0.1 µM

Q: Which IC50 [1] does the source give for `CS(=O)(=O)NC(=O)c1ccc2c(Oc3ccc(C(F)(F)F)cc3)cccc2c1` [Compound 5, N-(methylsulfonyl)-5-(4-(trifluoromethyl)phenoxy)-2-naphthamide] here?
A: < 0.1 µM

Q: With `COc1cc(Oc2ccc(C(F)(F)F)cc2)c2ncc(C(=O)N[C@H](C)CO)cc2c1` [Compound 116, (R)—N-(1-hydroxypropan-2-yl)-6-methoxy-8-(4-(trifluoromethyl)phenoxy)quinoline-3-carboxamide] as the compound, how does the IC50 [1] read?
A: < 0.1 µM

Q: For `C[C@H](NC(=O)c1ccc2c(Oc3ccc(C(F)(F)F)cc3)cccc2c1)c1cccc(N)n1` [Compound 65, (S)—N-(1-(6-aminopyridin-2-yl)ethyl)-5-(4-(trifluoromethyl)phenoxy)-2-naphthamide], which IC50 [1] is on record?
A: 0.1 to 1 µM

Q: `C[C@H](CO)NC(=O)c1ccc2c(Oc3ccc(C(F)(F)F)cc3)nccc2c1` [Compound 12, N-[(1R)-2-hydroxy-1-methyl-ethyl]-1-[4-(trifluoromethyl)phenoxy]isoquinoline-6-carboxamide] was tested. Which IC50 [1] did it give?
A: < 0.1 µM

Q: How did the IC50 [1] turn out when `C[C@@H](NC(=O)c1cnc2c(Oc3ccc(C(F)(F)F)cc3)cccc2c1)c1cccc2nc[nH]c12` [Compound 103, (R)—N-(1-(1H-benzo[d]imidazol-7-yl)ethyl)-8-(4-(trifluoromethyl)phenoxy)quinoline-3-carboxamide] was run?
A: 0.1 to 1 µM
